{"source": "patent US6531603B1", "about": "“Polymorphic forms of 6-[4-(1-cyclohexyl-1H-tetrazol-5-yl)butoxy]-3,4-dihydro-2(1H)-quinolinone” (priority 2001, dated 2003)", "key": {"[1]": {"test": "aqueous solubility of cilostazol polymorphic forms", "type": "physicochemical"}, "bioavailability": {"test": "bioavailability", "type": "in vivo", "settings": "Form A as prepared by the procedures of the '479 patent"}, "[2]": {"test": "solid state phase transformation of disturbed sample on heating by DSC", "type": "physicochemical", "settings": "sample disturbed with scratching / stressed, DSC heating from 30° C. to approximately 200° C. at 10° C. per minute, followed by melt at about 160° C. (Form A)", "excerpt": "Characterization of Form A of cilostazol, Form B of cilostazol, and Form C of cilostazol was further completed using DSC thermograms, shown in FIGS. 3, 4, and 5, respectively, with DSC thermograms for combinations of Form A and Form B; Form B and Form C; and Forms A, B, and C are shown in FIGS. 6, 7, and 8 respectively. DSC data were generated using a Mettler-Toledo DSC 821^e (Columbus, Ohio) with a Julabo FT900 intercooler chiller (Julabo Company; Allentown, Pa.). In general, samples were analyzed in a vented, sealed aluminum pan. Because the endothermic peak may vary depending upon the rate of heating and the calibration and precision of the instrument, with the amount of peak variation dependent upon the heating rate used, all thermograms included herein were run under the same, consistent conditions: heating at 10° C. per minute under a nitrogen purge at 40 mL/minute. The resultant sample of Example 1A was disturbed with scratching, which caused the cilostazol sample to undergo a solid state phase transformation at approximately 119° C. followed by an endotherm of melt at approximately 160° C. (Form A) during heating by DSC from 30° C. to approximately 200° C. at 10° C. per minute. When the sample is stressed and reheated (as detailed in Example 2A), the sample undergoes a solid state phase transformation at approximately 147° C. followed by an endotherm of melt at about 160° C. […]"}, "[3]": {"test": "stability of the crystalline form", "type": "physicochemical"}}}
{"smiles": "O=C1CCc2cc(OCCCCc3nnnn3C3CCCCC3)ccc2N1", "note": "[Form A, 6-[4-(1-cyclohexyl-1H-tetrazol-5-yl)butoxy]-3,4-dihydro-2(1H)-quinolinone]", "values": [{"measurement": "aqueous solubility", "setting": "[1]; Form A as prepared by the procedures of the '479 patent", "value": "low"}, {"measurement": "bioavailability", "setting": "bioavailability", "value": "low"}]}
{"smiles": "O=C1CCc2cc(OCCCCc3nnnn3C3CCCCC3)ccc2N1", "note": "[Form C, 6-[4-(1-cyclohexyl-1H-tetrazol-5-yl)butoxy]-3,4-dihydro-2(1H)-quinolinone]", "values": [{"measurement": "solid state phase transformation temperature (to Form A)", "setting": "[2]; listed as Example 2A", "value": "approximately 147 °C"}]}
{"smiles": "O=C1CCc2cc(OCCCCc3nnnn3C3CCCCC3)ccc2N1", "note": "[Form B, 6-[4-(1-cyclohexyl-1H-tetrazol-5-yl)butoxy]-3,4-dihydro-2(1H)-quinolinone]", "values": [{"measurement": "stability of the polymorphic form", "setting": "[3]", "value": "stable"}, {"measurement": "solubility relative to Form A", "setting": "[1]; inferred from lower melting point in DSC thermogram (FIG. 8), solubility itself not measured", "value": "more soluble than Form A"}, {"measurement": "solid state phase transformation temperature (to Form A)", "setting": "[2]; listed as Example 1A", "value": "approximately 119 °C"}]}
